Assay results: PubChem BioAssay (NCI)
Counter-ions that a name gives are not always drawn.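 Step 1: Grow cells in 96-well plates. Step 2: Expose to compound for 48 hours at 5 concentrations. Step 3: Interpolate endpoints linearly; if unreached, use highest concentration. GI50 marks 50% less growth. Definition used: TGI = concentration required for complete inhibition of growth.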 Where a SMILES comes first, the peptide text is derived from it. The star is where a group is joined. Tfa = O=C(C(F)(F)F)*

What was measured:
Test in all cases: DTP human tumour cell line panel, 48 h
HL-60(TB) leukemia = system: HL-60(TB) leukemia
HS 578T breast = system: HS 578T breast
MDA-MB-231 breast = system: MDA-MB-231 breast
NCI-H23 lung = system: NCI-H23 lung
NCI/ADR-RES ovarian = system: NCI/ADR-RES ovarian
RXF 393 renal = system: RXF 393 renal
SF-295 CNS = system: SF-295 CNS
SK-MEL-5 melanoma = system: SK-MEL-5 melanoma
HOP-92 NSCLC = system: HOP-92 NSCLC
MDA-N = system: MDA-N

SMILES	TGI (HL-60(TB) leukemia) [µM]	TGI (HS 578T breast) [µM]	TGI (MDA-MB-231 breast) [µM]	TGI (NCI-H23 lung) [µM]	TGI (NCI/ADR-RES ovarian) [µM]	TGI (RXF 393 renal) [µM]	TGI (SF-295 CNS) [µM]	TGI (SK-MEL-5 melanoma) [µM]	TGI (HOP-92 NSCLC) [µM]	TGI (MDA-N) [µM]	GI50 (HOP-92 NSCLC) [µM]	GI50 (HS 578T breast) [µM]	GI50 (NCI/ADR-RES ovarian) [µM]	GI50 (RXF 393 renal) [µM]	GI50 (SK-MEL-5 melanoma) [µM]	GI50 (NCI-H23 lung) [µM]	GI50 (SF-295 CNS) [µM]	GI50 (HL-60(TB) leukemia) [µM]	GI50 (MDA-MB-231 breast) [µM]
COc1ccc(C2=CC(c3ccccc3)n3nnnc3N2)cc1 (centres undefined)	> 100	> 100	> 100	> 100	> 100	> 100	> 100	> 100											
CCc1ccc(N=Cc2cc(OC)c(OC)c(OC)c2)cc1	> 100			> 100		> 100	> 100	> 100	> 100										
COc1cc2c[n+](C)c3c4cc(OC)c(OC)cc4c(OC)cc3c2cc1OC		12.6	19.8	36.8	> 100	> 100	> 100	14.9		> 45.9									
COc1cc(C2SC(N)=Nc3c2c(C)nn3C(=O)c2ccccc2O)cc(OC)c1OC (centres undefined)		8.53	> 10	> 10	> 10	> 10	> 10	> 10	8.07	> 10									
COc1cc(C=O)ccc1Oc1nnnn1-c1ccccc1		> 100	> 100	> 100	> 100	> 100	> 100	59.2	> 100	> 100									
NC(=O)c1nnc2ccc(F)cc2c1N	> 100	> 100	> 100	> 100	> 100		> 100	> 100		> 100									
CC(C)(C)OC(=O)NCCCCC(N)C(N)=O (centres undefined)		> 100	> 100	> 100	> 100	> 100	> 100	> 100	> 100	> 100									
CC1(C)CCC[C@@]2(C)C1CCC1(C)C(CCc3ccoc3)/C(=C/OS(=O)(=O)O)CCC12 (some centres undefined) (tested in a mixture with another compound)	> 100			> 100		> 100	> 100	> 100	63.2										
CC(=O)OC1C(C)OC(Oc2c(C)c3c4c(c2O)[C@@H](C)CC[C@@H]4[C@@H](C)C[C@H]3C=C(C)C)C(O)C1O (some centres undefined)		5.51			9.13	20.9		5.39	9.56		3.73	2.43	2.96	4.11	2.49				
CC(=O)OC12/C(=N/O)CCCCCC1c1ccccc12 (centres undefined)	> 100			> 100		> 100	> 100	> 100											
C=C(C)C(=O)O[C@H]1C/C(CO)=C/CCC(=C)C(OC(C)=O)[C@H]2OC(=O)C(=C)[C@H]12 (some centres undefined)		> 100	25.4	25	61.2		91.4	28.3		19.1									
COc1ccc2nc3cc(Cl)ccc3c(NCCCN(Cc3cc(OC)c(OC)c(OC)c3)Cc3cc(OC)c(OC)c(OC)c3)c2c1		36.6	10.6		86.5	15.2	12.1	2.61	23.7										
Cc1ccc(S(=O)(=O)c2c(N)c3nc4ccccc4n3c3nc4ccccc4nc23)cc1				> 100			> 100	> 100											
Fc1ccc2[nH]cc(-c3nc(-c4c[nH]c5ncccc45)cs3)c2c1		> 100				> 100						3.15		> 100					
Cc1c(NC(=S)NN)c(=O)n(-c2ccccc2)n1C	> 100	> 100	> 100		> 100	> 100	> 100	> 100		> 100									
O=C(Nn1c(-c2ccccc2)nc2ccccc2c1=O)c1ccc(CS)cc1	50.1	> 100	96.1	> 100		> 100	> 100	> 100	> 100	> 100									
OCC1OC(n2nc(-c3ccccc3)nc2-c2cnccn2)C(O)C(O)C1O (centres undefined)	> 100		> 100	> 100	> 100		> 100	> 100	> 100	> 100									
Nc1ccc(S(=O)(=O)Nc2nnc(S(N)(=O)=O)s2)cc1	> 100		> 100	> 100	> 100	> 100	> 100		> 100										

SMILES	TGI (HL-60(TB) leukemia) [µM]	TGI (HS 578T breast) [µM]	TGI (MDA-MB-231 breast) [µM]	TGI (NCI-H23 lung) [µM]	TGI (NCI/ADR-RES ovarian) [µM]	TGI (RXF 393 renal) [µM]	TGI (SF-295 CNS) [µM]	TGI (SK-MEL-5 melanoma) [µM]	TGI (HOP-92 NSCLC) [µM]	TGI (MDA-N) [µM]	GI50 (HOP-92 NSCLC) [µM]	GI50 (HS 578T breast) [µM]	GI50 (NCI/ADR-RES ovarian) [µM]	GI50 (RXF 393 renal) [µM]	GI50 (SK-MEL-5 melanoma) [µM]	GI50 (NCI-H23 lung) [µM]	GI50 (SF-295 CNS) [µM]	GI50 (HL-60(TB) leukemia) [µM]	GI50 (MDA-MB-231 breast) [µM]
Cc1cc(N(CCC#N)CCC#N)ccc1/C(N=Nc1ccc(Cl)cc1)=N\NC(=O)c1cc(Cl)ccc1O		56.2	> 100	> 100	> 100	74.5	91.4	> 100		> 100									
Oc1ccc(-c2csc(NNC3=NC/C(=C/c4ccc5c(c4)OCO5)S3)n2)cc1O			> 100	47.7	> 100		> 100	> 100	> 100	> 100									
O=C(O)CC(NC(=O)C(F)(F)F)C(=O)NC(Cc1ccc(O)cc1)C(=O)O (stereo not drawn) (Tfa-Asp-Tyr-OH; configuration not given here)		> 50	> 50	> 50	> 50	> 50	> 50	> 50	> 50	> 50									
N#CN=C(N)c1sc2nc3c(c(-c4ccc(Br)cc4)c2c1N)CCCC3			70.8	66.9	80.1	60	58.6	38.3	77.5	34.4									
CCOC(=O)c1cnn2c1ncc1c(=O)n(NC(N)=O)ccc12	> 100	> 100	> 100	> 100			> 100	> 100	> 100	> 100									
Cc1cc(N(CCC#N)CCC#N)ccc1/C=C1N=C(/C=C\c2ccccc2)OC\1=O	> 100			> 100		> 100	> 100	> 100	> 100										
C=C(CN(C)C)C(=O)c1ccccc1C	15.9			> 100		17.6	> 100	> 100	33.3										
Cc1ccccc1C(=O)c1c(O)c2c(c(O)c1Br)CCCC2	23			58.4		33.7	47.9	35.4	40										
O=S(=O)(O)c1c(Cl)cc(O)c2ncccc12			> 100	> 100	> 100	> 100	> 100	> 100	> 100	> 100									
CC(=O)[C@@H]1[C@@H](OC(=O)CCC(C)COC2OC(CO)C(O)C(O)C2O)C[C@H]2[C@@H]3CC=C4C[C@@H](OC5OC(CO)C(OC6OC(C)C(O)C(O)C6O)C(O)C5OC5OC(C)C(O)C(O)C5O)CC[C@]4(C)[C@H]3CC[C@]12C (some centres undefined)			> 100	> 100		> 100	> 100	> 100		> 100									
Cc1c(C#N)c2nnn(-c3ccc(Cl)cc3)c(=O)n2c1-c1ccccc1	> 57.3	> 56.3	0.987	19.8	16	3.76	1.03	1.3	25.7										
COC1=C2CC(C)CC(OC)C(O)C(C)/C=C(\C)C(OC(N)=O)C(OC)/C=C\C=C(/C)C(=O)NC(=C(C=NC(C)(C)C)C1=O)C2=O (centres undefined)	1.86			5.17	44.4	4.89	31.7	15.4	1.35										
CC[C@@]1(N(C)C)C(=O)OCc2c1cc1n(c2=O)Cc2cc3ccccc3nc2-1			> 100	32	51.9	31	37.2	> 100	69.6										
NCC(=O)NC1(c2cc3ccccc3s2)CCCCC1	86.8	99.5		> 100	> 100	> 100	> 100	33.2	78.1	> 100									
ClCCCN(CCCCl)c1ccc(C=Nc2cccc(Cl)c2)cc1	58.4	71.8	> 73.7	53.5	52.5	> 52.7	> 82.4	36.7	> 100										
CCS(=O)(=O)N1CCC(C(C)n2c(C)c(C(=O)NCc3c(OC)cc(C)[nH]c3=O)c3ccccc32)CC1 (centres undefined)		> 100		> 100	> 100	> 100	> 100	> 100				> 100	> 100	> 100	> 100	> 100	> 100		
O=C(Nc1cccc(-n2ccc3c(NC(=O)c4ccccc4)nccc32)c1)c1ccc(N2CCOCC2)c(C(F)(F)F)c1	4.82	98.6	3.42	> 90.1	> 51.4	2.69	0.49	0.169	6.87		0.179	0.272	0.0352	0.0333	0.0349	0.0679	0.0306	0.0393	0.127
